Data on 25 compounds can be found in patent US9440952B2, “Compounds inhibiting leucine-rich repeat kinase enzyme activity” (Merck Sharp & Dohme Corp., priority 2013, dated 2016).

Holding throughout (assay type): biochemical
The target in experiment [1] is T1, kinases (Table B) (Homo sapiens, UniProt Q96GD4).
T1 construct: purchased Life Technologies Corporation
The experiment is described as follows: Kinase selectivity, Z'-LYTE or Adapta assay platforms (Life Technologies). The note with it: AURKB (Aurora B), Z-LYTE, read-out: percent inhibition AURKB (Aurora B); for inhibition at 0.1 µM: test conc 0.100 μM; for inhibition at 1 µM: test conc 1 μM.

Experiment [2] deals with T2, kinases (Table B) (Homo sapiens, UniProt P15056, V600E).
T2 construct: purchased Life Technologies Corporation
T2 sequence (P15056 whole entry V600E): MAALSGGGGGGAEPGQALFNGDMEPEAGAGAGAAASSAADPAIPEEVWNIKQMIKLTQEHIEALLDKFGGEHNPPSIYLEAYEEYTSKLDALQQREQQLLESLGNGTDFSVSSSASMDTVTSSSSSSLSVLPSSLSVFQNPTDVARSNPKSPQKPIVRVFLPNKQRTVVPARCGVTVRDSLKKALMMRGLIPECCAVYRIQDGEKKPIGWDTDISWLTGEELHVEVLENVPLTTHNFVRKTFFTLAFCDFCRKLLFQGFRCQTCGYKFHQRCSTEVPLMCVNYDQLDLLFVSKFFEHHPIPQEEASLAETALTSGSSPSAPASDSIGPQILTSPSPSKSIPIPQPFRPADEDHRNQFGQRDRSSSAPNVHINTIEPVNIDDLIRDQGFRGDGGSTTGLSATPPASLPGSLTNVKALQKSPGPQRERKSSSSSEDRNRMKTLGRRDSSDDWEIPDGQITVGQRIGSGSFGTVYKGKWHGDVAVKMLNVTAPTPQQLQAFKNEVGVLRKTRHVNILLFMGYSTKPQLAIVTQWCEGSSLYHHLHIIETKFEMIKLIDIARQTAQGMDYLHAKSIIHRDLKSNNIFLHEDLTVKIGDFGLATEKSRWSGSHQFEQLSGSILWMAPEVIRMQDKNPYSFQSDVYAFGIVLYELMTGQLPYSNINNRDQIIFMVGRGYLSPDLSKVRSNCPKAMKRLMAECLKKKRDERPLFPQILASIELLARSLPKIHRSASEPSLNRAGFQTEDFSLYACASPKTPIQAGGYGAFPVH
Described as above. Conditions: BRAF V599E, Z-LYTE, read-out: percent inhibition BRAF V599E; for inhibition at 1 µM: test conc 1 μM.

For experiment [3], the system named is kinases (Table B). The experiment is described as above. The note with it: for percent inhibition CDK1/cyclin B / percent inhibition CLK2 / percent inhibition JAK3: Z-LYTE; for percent inhibition IRAK1: Adapta.
Experiment [4] has as its target T3, kinases (Table B) (Homo sapiens, UniProt P28482).
T3 construct: purchased Life Technologies Corporation
The experiment is described as above. The note with it: MAPK1 (ERK2), Z-LYTE, read-out: percent inhibition MAPK1 (ERK2); for inhibition at 0.1 µM: test conc 0.100 μM; for inhibition at 1 µM: test conc 1 μM.

For experiment [5], the target named is T4, kinases (Table B) (Homo sapiens, UniProt O96017).
T4 construct: purchased Life Technologies Corporation
T4 sequence (O96017 whole entry): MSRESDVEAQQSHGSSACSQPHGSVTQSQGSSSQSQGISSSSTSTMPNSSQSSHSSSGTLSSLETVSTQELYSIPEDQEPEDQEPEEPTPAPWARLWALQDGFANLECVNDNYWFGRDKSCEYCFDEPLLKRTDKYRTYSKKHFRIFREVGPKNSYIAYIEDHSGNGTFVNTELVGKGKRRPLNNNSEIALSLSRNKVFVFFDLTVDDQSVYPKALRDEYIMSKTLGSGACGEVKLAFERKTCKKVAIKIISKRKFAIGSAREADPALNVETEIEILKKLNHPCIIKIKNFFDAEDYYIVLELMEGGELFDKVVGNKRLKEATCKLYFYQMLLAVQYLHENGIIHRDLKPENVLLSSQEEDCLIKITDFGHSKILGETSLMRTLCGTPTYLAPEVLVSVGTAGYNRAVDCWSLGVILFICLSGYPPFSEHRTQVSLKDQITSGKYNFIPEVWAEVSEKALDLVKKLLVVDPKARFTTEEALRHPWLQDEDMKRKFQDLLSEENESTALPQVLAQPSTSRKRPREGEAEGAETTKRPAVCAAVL
The experiment is described as above. Conditions: CHEK2 (CHK2), Z-LYTE, read-out: percent inhibition CHEK2 (CHK2); for inhibition at 1 µM: test conc 1 μM.

The target in experiment [6] is T5, kinases (Table B) (Homo sapiens, UniProt P45983).
T5 construct: purchased Life Technologies Corporation
T5 sequence (P45983 whole entry): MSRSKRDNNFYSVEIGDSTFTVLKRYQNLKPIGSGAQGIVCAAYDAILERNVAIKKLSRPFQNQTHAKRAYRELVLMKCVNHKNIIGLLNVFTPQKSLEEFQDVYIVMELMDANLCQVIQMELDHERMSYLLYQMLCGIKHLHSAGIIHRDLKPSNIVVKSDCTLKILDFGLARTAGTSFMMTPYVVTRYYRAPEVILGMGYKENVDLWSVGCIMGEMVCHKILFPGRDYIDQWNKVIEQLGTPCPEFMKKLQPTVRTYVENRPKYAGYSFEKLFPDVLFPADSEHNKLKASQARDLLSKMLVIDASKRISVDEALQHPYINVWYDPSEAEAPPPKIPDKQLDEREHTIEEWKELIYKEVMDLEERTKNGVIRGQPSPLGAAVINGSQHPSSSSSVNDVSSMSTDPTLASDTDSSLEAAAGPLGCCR
The experiment is described as above. Conditions: MAPK8 (JNK1), Z-LYTE, read-out: percent inhibition MAPK8 (JNK1); for inhibition at 1 µM: test conc 1 μM.

Experiment [7] has as its target T6, kinases (Table B) (Homo sapiens, UniProt Q13627).
T6 construct: purchased Life Technologies Corporation
The description is as above. Conditions: DYRK1A, Z-LYTE, read-out: percent inhibition DYRK1A; for inhibition at 0.1 µM: test conc 0.100 μM; for inhibition at 1 µM: test conc 1 μM.

Experiment [8] has as its target T7, LRRK2(G2019S mutation, GST-LRRK2(amino acids 970-2527)) (Homo sapiens, UniProt Q5S007, G2019S).
T7 construct: GST-LRRK2(amino acids 970-2527); GST (N); purchased Life Technologies Corporation
The experiment is described as follows: LRRK2 Km ATP LanthaScreen Assay. The note with it: read-out: LRRK2 IC50. The gist of the method: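 IC50 values are means of several runs in the Km-ATP LanthaScreen format, analysed by curve fitting of the LanthaScreen read-out.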
A general note: Time-resolved FRET reads energy transfer from a long-lived donor to a nearby acceptor.

Experiment [9] concerns the target T7, LRRK2(G2019S mutation, GST-LRRK2(amino acids 970-2527)). As to the kind of experiment: LRRK2 5 mM ATP LanthaScreen Assay. Conditions: mean IC50 of several tests. On the procedure: The data presented for the 5 mM and Km ATP LanthaScreen™ Assay represents mean IC50 values based on several test results and may have reasonable. deviations depending on the specific conditions and reagents used. Reagents for the LRRK2 5 mM and Km ATP LanthaScreen™ Assay were purchased from Life Technologies Corporation.
LRRK2 5 mM ATP LanthaScreen™ Assay • a) 400 nl of a 1:2.15 serial dilution of test compound (98 μM top assay concentration) is spotted via Labcyte Echo to certain wells in a 384 well black, untreated plate. […] Results are analysed using Assay Data Analyzer.

Setting [10] is: Km ATP LanthaScreen, mean IC50 of several tests.
Where [11] appears, read: Km ATP LanthaScreen Assay, LRRK2 G2019S, mean IC50 values.

Molecules are shown by their SMILES. A value given as a limit tells only on which side of the number the result lay.

T7 sequence (Q5S007 970-2527 G2019S): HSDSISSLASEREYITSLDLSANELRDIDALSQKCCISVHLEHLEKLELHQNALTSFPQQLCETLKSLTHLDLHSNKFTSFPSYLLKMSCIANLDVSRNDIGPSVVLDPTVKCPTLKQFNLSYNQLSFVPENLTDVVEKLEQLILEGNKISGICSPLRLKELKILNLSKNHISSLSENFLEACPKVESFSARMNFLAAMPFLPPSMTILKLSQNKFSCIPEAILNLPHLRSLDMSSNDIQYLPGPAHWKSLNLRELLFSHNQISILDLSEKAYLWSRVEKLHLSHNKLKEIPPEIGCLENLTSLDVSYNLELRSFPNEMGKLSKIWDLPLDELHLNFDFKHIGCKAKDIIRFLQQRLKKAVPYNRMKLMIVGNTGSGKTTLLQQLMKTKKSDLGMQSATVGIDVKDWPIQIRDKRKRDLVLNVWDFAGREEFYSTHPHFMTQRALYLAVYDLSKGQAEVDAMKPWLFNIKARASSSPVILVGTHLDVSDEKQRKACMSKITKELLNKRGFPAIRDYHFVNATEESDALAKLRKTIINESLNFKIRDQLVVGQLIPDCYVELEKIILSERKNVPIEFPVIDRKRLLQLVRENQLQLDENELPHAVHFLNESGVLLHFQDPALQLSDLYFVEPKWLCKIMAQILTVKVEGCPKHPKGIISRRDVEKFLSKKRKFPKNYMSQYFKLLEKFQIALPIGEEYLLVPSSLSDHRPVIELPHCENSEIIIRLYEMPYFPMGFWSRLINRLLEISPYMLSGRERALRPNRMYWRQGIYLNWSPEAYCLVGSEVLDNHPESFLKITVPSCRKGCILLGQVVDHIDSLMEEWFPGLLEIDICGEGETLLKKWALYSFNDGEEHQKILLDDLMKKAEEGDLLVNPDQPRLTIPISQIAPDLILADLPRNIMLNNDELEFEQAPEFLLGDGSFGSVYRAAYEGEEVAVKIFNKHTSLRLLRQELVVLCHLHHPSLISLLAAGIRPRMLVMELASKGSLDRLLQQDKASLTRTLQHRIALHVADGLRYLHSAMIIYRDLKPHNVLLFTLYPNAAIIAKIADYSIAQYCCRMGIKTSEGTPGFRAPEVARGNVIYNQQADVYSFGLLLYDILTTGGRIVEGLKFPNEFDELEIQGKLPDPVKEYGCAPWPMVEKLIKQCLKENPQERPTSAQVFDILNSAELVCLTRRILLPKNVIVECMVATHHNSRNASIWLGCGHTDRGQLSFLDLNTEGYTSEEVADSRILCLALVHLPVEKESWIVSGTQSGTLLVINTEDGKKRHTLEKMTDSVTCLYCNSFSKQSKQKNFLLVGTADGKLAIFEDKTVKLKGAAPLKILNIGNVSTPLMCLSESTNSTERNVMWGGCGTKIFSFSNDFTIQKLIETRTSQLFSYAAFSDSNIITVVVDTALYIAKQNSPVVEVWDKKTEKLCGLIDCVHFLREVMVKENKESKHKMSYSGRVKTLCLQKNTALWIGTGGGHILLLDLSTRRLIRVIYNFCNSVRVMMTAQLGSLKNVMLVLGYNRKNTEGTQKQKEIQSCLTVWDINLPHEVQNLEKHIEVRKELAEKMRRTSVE
T1 sequence (Q96GD4 whole entry): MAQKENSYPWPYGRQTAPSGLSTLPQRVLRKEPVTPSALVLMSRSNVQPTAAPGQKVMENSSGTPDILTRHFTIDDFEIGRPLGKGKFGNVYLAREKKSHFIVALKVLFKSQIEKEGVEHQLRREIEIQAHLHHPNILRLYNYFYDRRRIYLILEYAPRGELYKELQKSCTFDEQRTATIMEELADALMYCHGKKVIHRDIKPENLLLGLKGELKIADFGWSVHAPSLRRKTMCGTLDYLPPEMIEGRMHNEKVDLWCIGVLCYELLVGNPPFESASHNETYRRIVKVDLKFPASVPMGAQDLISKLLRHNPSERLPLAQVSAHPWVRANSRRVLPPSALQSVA
T3 sequence (P28482 whole entry): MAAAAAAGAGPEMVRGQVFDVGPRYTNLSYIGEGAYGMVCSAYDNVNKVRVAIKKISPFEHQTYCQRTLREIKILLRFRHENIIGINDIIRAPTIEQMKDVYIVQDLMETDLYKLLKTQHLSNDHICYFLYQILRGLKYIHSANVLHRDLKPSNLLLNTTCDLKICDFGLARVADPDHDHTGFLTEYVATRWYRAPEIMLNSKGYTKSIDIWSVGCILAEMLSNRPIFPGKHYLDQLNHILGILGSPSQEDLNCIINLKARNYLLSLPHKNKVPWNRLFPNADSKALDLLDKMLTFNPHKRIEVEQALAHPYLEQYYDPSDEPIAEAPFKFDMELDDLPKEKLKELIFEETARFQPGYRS

For `Cn1cc(-c2ccc3[nH]nc(-c4ccnc(N5CCN(S(C)(=O)=O)CC5)c4)c3c2)cn1` [Example 381], the inhibition (as a rule, the drop in the measured response relative to a control, in per cent) at 0.1 µM in experiment [1] came to 13%; in [2] (test conc 0.100 μM), 11%; in experiment [4], 11%; in experiment [5] (test conc 0.100 μM), 19%; in experiment [6] (test conc 0.100 μM), 25%; in experiment [7], 78%. In [3] (test conc 0.100 μM), the “percent inhibition CDK1/cyclin B” value came to 26%. In addition, in experiment [3] (test conc 0.100 μM), the “percent inhibition CLK2” value was 91%. Besides, in [3] (test conc 0.100 μM), the “percent inhibition IRAK1” value is on record as 20%. Further, the “percent inhibition JAK3” value in [3] (test conc 0.100 μM) came out at 4%. Besides, the IC50 – broadly, the concentration needed to halve the response being measured – in experiment [8] (setting [10]) is 1.9 nM; in experiment [9] it was 24 nM.
`CC(C)Oc1ccc2[nH]nc(-c3ccnc(N4CCNC(=O)C4)c3)c2c1` [Example 311]: the IC50 was less than 0.6 nM in experiment [8] (setting [10]) and 14 nM in experiment [9].
As for `CC(C)Oc1ccc2[nH]nc(-c3ccnc(N4CCN(S(C)(=O)=O)CC4)c3)c2c1` [Example 289], the inhibition at 1 µM is 23% in experiment [1]; 64% in experiment [2]; 55% in experiment [4]; 26% in experiment [5]; 54% in experiment [6]; 12% in [7]. In addition, the “percent inhibition CDK1/cyclin B” value in experiment [3] (test conc 1 μM) was determined as 18%. For the same compound, in [3] (test conc 1 μM), the “percent inhibition CLK2” value is 49%. The “percent inhibition IRAK1” value in [3] (test conc 1 μM) turned out to be 6%. Moreover, the “percent inhibition JAK3” value in [3] (test conc 1 μM) amounted to 29%. For the same compound, the results for the IC50 in [8] (setting [10]) and in experiment [9] were 2.7 nM and 16 nM, respectively.
As for `Cn1cc(-c2ccc3[nH]nc(-c4ccnc(N5CC(F)C5)c4)c3c2)cn1` [Ex 376], the values for the IC50 in experiment [8] (setting [10]) and in experiment [9] were less than 0.6 nM and 23 nM, respectively.
For `CC(C)Oc1ccc2[nH]nc(-c3ccnc(N4CCC(O)CC4)c3)c2c1` [Example 285] the same measures were 3.8 nM and 15 nM.
In the case of `Cn1cc(-c2ccc3[nH]nc(-c4ccnc(N5CCOCC5)c4)c3c2)cn1` [Example 321], the results for the IC50 in experiment [8] (setting [10]) and in [9] were less than 0.6 nM and 12 nM, respectively.
Turning to `CC(C)Oc1ccc2[nH]nc(-c3ccnc(N4CCN(C)CC4)c3)c2c1` [Example 383], the inhibition at 0.1 µM in [1] was determined as 8%. Further, in experiment [3] (test conc 0.100 μM), the “percent inhibition CDK1/cyclin B” value was found to be 5%, the “percent inhibition CLK2” value was 26%, the “percent inhibition IRAK1” value is reported as 2% and the “percent inhibition JAK3” value worked out at 7%. In experiment [4], the inhibition at 0.1 µM is 10%. Further, in experiment [7], the inhibition at 0.1 µM was found to be 8%. The IC50 in experiment [8] (setting [10]) came to 0.75 nM. In experiment [9], this compound came in with an IC50 of 22 nM.
Consider `Oc1cc(-c2ccc3[nH]nc(-c4ccnc(N5CCC(O)CC5)c4)c3c2)ccn1` [Example 121], for which the IC50 came to 1.4 nM in experiment [8] (setting [11]) and 16 nM in experiment [9].
On to `CC(C)Oc1ccc2[nH]nc(-c3ccnc(N4CCOCC4)c3)c2c1` [Example 400], for which the inhibition at 1 µM came to 9% in [1]; 51% in experiment [2]; 41% in experiment [4]; 16% in experiment [5]; 72% in experiment [6]; 9% in experiment [7]. Besides, the “percent inhibition CDK1/cyclin B” value in experiment [3] (test conc 1 μM) is given as 29%. Also, the “percent inhibition CLK2” value in experiment [3] (test conc 1 μM) was found to be 47%. The “percent inhibition IRAK1” value in [3] (test conc 1 μM) is 11%. In [3] (test conc 1 μM), the “percent inhibition JAK3” value is 49%. For the same compound, the IC50 in experiment [8] (setting [10]) stood at 1.9 nM; in experiment [9] it was 14 nM.
Regarding `Cc1c(-c2ccc3[nH]nc(-c4ccnc(N5CCOCC5)c4)c3c2)cnn1C` [Example 316], the IC50 worked out at 2.1 nM in [8] (setting [10]) and 8 nM in experiment [9].
For the compound `Cn1cc(-c2cc3c(-c4ccnc(N5CCOCC5)c4)n[nH]c3cc2F)cn1` [Ex 352], the IC50 in [8] (setting [10]) stood at 12 nM.
Turning to `Cc1nc(C)c(CC(=O)Nc2cc(-c3n[nH]c4ccc(OC(C)C)cc34)ccn2)s1` [Example 163], in experiment [8] (setting [11]), the IC50 was found to be 34.9 nM.
As for `CCC(C)Oc1ccc2[nH]nc(-c3ccnc(N4CCOCC4)c3)c2c1` (stereo not drawn) [Example 291], in experiment [8] (setting [10]), the IC50 turned out to be 2.2 nM.
`CN1CCN(c2cc(-c3n[nH]c4ccc(-c5ccnc(O)c5)cc34)ccn2)CC1` [Example 123]: in experiment [8] (setting [11]), the IC50 was 2.7 nM.
Same read-out and setting: with `CN1CCCC(CN(C)c2cc(-c3n[nH]c4ccccc34)ccn2)C1` (stereo not drawn) [Example 32] the figure was 75 nM.
Turning to `Cn1cc(-c2ccc3[nH]nc(-c4ccnc(N5CCC(F)(F)CC5)c4)c3c2)cn1` [Example 273], the IC50 in experiment [8] (setting [10]) was found to be 3 nM.
Still for that read-out and setting: next, `CCc1cnc(-c2ccc3[nH]nc(-c4ccnc(N5CCOCC5)c4)c3c2)nc1` [Example 330]: 5.6 nM; `CC(C)Oc1ccc2[nH]nc(-c3ccnc(NS(=O)(=O)c4cccc(F)c4)c3)c2c1` [Example 256]: 42.5 nM.
As to `CCOc1ccc2[nH]nc(-c3ccnc(N4CCC(n5cccn5)C4)c3)c2c1` (stereo not drawn) [Example 222], in [8] (setting [11]), the half-maximal inhibitory concentration (IC50) was 9.3 nM.
Same read-out and setting: with `c1ccc2c(-c3ccnc(N4CCCCCC4)c3)n[nH]c2c1` [Example 2] the figure was 76 nM; with `COCCC(=O)Nc1cc(-c2n[nH]c3ccc(OC(C)C)cc23)ccn1` [Example 150], 51.7 nM; with `CCOc1ccc2[nH]nc(-c3ccnc(N4CCC(F)(F)CC4)c3)c2c1` [Example 216], 5.4 nM.
On the same count and under the same terms, next, `CN1CC=C2CN(c3cc(-c4n[nH]c5ccccc45)ccn3)CC21` (stereo not drawn) [Example 55]: 14 nM.
For `CN1CCN(c2cc(-c3n[nH]c4ccc(-c5cnn(C)c5)cc34)ccn2)CC1=O` [Example 279], the IC50 in [8] (setting [10]) was 2.9 nM.
On the same count and under the same terms, next, `COc1ccnc(F)c1-c1ccc2[nH]nc(-c3ccnc(N4CCN(C(C)=O)CC4)c3)c2c1` [Example 367]: less than 0.6 nM.
